Measured values published in patent US12077503B2, “Substituted cyclic amides and their use as herbicides” (FMC CORPORATION, priority 2015, dated 2024).

Experiments:
Type in all cases: in vivo
[1] = tested on: ragweed (common ragweed, Ambrosia elatior); experiment: Test A postemergence; conditions: Ambrosia artemisiifolia, post-emergence, 240 h, 125 g ai/ha, postemergence; visual injury after approximately 10 d; 0 to 100 scale (0 no effect, 100 complete control); read-out: Plant response rating, Ragweed
Summary of the method: (§1)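 Compounds were formulated in a non-phytotoxic solvent mixture with surfactant and applied as a preemergence directed soil spray after seeding, or sprayed postemergence over plants 2 to 10 cm tall at the one- to two-leaf stage. Evaluation after about 10 d compared treated with untreated controls, using a scale from 0 (no effect) to 100 (complete control).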

Kochia (Kochia scoparia) [2] = experiment: Test A postemergence; conditions: Bassia scoparia, post-emergence, 240 h, 125 g ai/ha, postemergence; visual injury after approximately 10 d; 0 to 100 scale (0 no effect, 100 complete control); read-out: Plant response rating, Kochia
Summary of the method: as §1

[3] = tested on: pigweed (Amaranthus retroflexus); experiment: Test A postemergence; conditions: Amaranthus retroflexus, post-emergence, 240 h, 125 g ai/ha, postemergence; visual injury after approximately 10 d; 0 to 100 scale (0 no effect, 100 complete control); read-out: Plant response rating, Pigweed
Summary of the method: as §1

[4] = tested on: wheat (Triticum aestivum); experiment: Test A postemergence; conditions: Triticum aestivum, post-emergence, 240 h, 125 g ai/ha, postemergence; visual injury after approximately 10 d; 0 to 100 scale (0 no effect, 100 complete control); read-out: Plant response rating, Wheat
Summary of the method: as §1

corn (Zea mays) = experiment: Test A postemergence; conditions: Zea mays, post-emergence, 240 h, 125 g ai/ha, postemergence; visual injury after approximately 10 d; 0 to 100 scale (0 no effect, 100 complete control)
Summary of the method: as §1

[5] = tested on: giant foxtail (Setaria faberii); experiment: Test A postemergence; conditions: Setaria faberi, post-emergence, 240 h, 125 g ai/ha, postemergence; visual injury after approximately 10 d; 0 to 100 scale (0 no effect, 100 complete control); read-out: Plant response rating, Foxtail, Giant
Summary of the method: as §1

[6] = tested on: ryegrass, Italian (Italian ryegrass, Lolium multiflorum); experiment: Test A postemergence; conditions: Lolium multiflorum, post-emergence, 240 h, 125 g ai/ha, postemergence; visual injury after approximately 10 d; 0 to 100 scale (0 no effect, 100 complete control); read-out: Plant response rating, Ryegrass, Italian
Summary of the method: as §1

[7] = tested on: barnyardgrass (Echinochloa crus-galli); experiment: Test A postemergence; conditions: Echinochloa crus-galli, post-emergence, 240 h, 125 g ai/ha, postemergence; visual injury after approximately 10 d; 0 to 100 scale (0 no effect, 100 complete control); read-out: Plant response rating, Barnyardgrass
Summary of the method: as §1

[8] = tested on: blackgrass (Alopecurus myosuroides); experiment: Test A postemergence; conditions: Alopecurus myosuroides, post-emergence, 240 h, 125 g ai/ha, postemergence; visual injury after approximately 10 d; 0 to 100 scale (0 no effect, 100 complete control); read-out: Plant response rating, Blackgrass
Summary of the method: as §1

[9] = tested on: Galium (catchweed bedstraw, Galium aparine); experiment: Test A postemergence; conditions: Galium, post-emergence, 240 h, 125 g ai/ha, postemergence; visual injury after approximately 10 d; 0 to 100 scale (0 no effect, 100 complete control); read-out: Plant response rating, Galium
Summary of the method: as §1

[10] = tested on: ragweed (common ragweed, Ambrosia elatior); experiment: Test A preemergence; conditions: Ambrosia artemisiifolia, pre-emergence, 240 h, preemergence, read-out: Plant response rating, Ragweed
Summary of the method: as §1

Kochia (Kochia scoparia) [11] = experiment: Test A preemergence; conditions: Bassia scoparia, pre-emergence, 240 h, preemergence, read-out: Plant response rating, Kochia
Summary of the method: as §1

[12] = tested on: pigweed (Amaranthus retroflexus); experiment: Test A preemergence; conditions: Amaranthus retroflexus, pre-emergence, 240 h, preemergence, read-out: Plant response rating, Pigweed
[13] = tested on: giant foxtail (Setaria faberii); experiment: Test A preemergence; conditions: Setaria faberi, pre-emergence, 240 h, preemergence, read-out: Plant response rating, Foxtail, Giant
Summary of the method: as §1

[14] = tested on: ryegrass, Italian (Italian ryegrass, Lolium multiflorum); experiment: Test A preemergence; conditions: Lolium multiflorum, pre-emergence, 240 h, preemergence, read-out: Plant response rating, Ryegrass, Italian
Summary of the method: as §1

[15] = tested on: barnyardgrass (Echinochloa crus-galli); experiment: Test A preemergence; conditions: Echinochloa crus-galli, pre-emergence, 240 h, preemergence, read-out: Plant response rating, Barnyardgrass
Summary of the method: as §1

[16] = 125 g ai/ha, visual rating after approx. 10 d, 0 to 100 scale where 0 is no effect and 100 is complete control
[17] = 500 g ai/ha, 0 to 100 scale, 0 = no effect, 100 = complete control

CN1C[C@H](c2ccc(C(F)(F)F)cc2)[C@@H](C(=O)Nc2ccccc2C2CC2)C1=O [Compound 747]
pest or weed control at 125 g/ha [1]: 0%
pest or weed control at 125 g/ha (Kochia (Kochia scoparia) [2]): 20%
pest or weed control at 125 g/ha [3]: 30%
plant injury at 125 g/ha [4]: 0%
Corn plant response rating (crop injury, 0 = no effect, 100 = complete kill) at 125 g/ha (corn (Zea mays)): 0%
pest or weed control at 125 g/ha [5]: 70%
pest or weed control at 125 g/ha [6]: 0%
pest or weed control at 125 g/ha [7]: 40%
pest or weed control at 125 g/ha [8]: 30%
pest or weed control at 125 g/ha [9]: 60%
pest or weed control at 125 g/ha [10, 16]: 20%
pest or weed control at 500 g/ha [10, 17]: 0%
pest or weed control at 125 g/ha (Kochia (Kochia scoparia) [11]; [16]): 60%
pest or weed control at 500 g/ha (Kochia (Kochia scoparia) [11]; [17]): 80%
pest or weed control at 125 g/ha [12, 16]: 50%
pest or weed control at 500 g/ha [12, 17]: 50%
pest or weed control at 125 g/ha [13, 16]: 90%
pest or weed control at 500 g/ha [13, 17]: 90%
pest or weed control at 125 g/ha [14, 16]: 0%
pest or weed control at 500 g/ha [14, 17]: 60%
pest or weed control at 125 g/ha [15, 16]: 0%
pest or weed control at 500 g/ha [15, 17]: 70%
